According to ChEMBL document CHEMBL1201862, “PubChem BioAssay data set” (2004):
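Five concentrations, 48 hours, 96-well plates. GI50 = concentration required for 50% inhibition of growth.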 Calls of active or inactive are those of the source. Cut-off read from the data, not from the text of the source: active = GI50 up to about 1.1 µM and inactive = higher.

Tests used:
Test in all cases: growth of human tumour cells (NCI), 48 h
786-0 = system: 786-0
COLO 205 = system: COLO 205
OVCAR-5 = system: OVCAR-5
HCC 2998 = system: HCC 2998
ACHN = system: ACHN
RPMI-8226 = system: RPMI-8226
NCI-H460 = system: NCI-H460
UACC-257 = system: UACC-257
NCI-H226 = system: NCI-H226
SW-620 = system: SW-620
CAKI-1 = system: CAKI-1
HT-29 = system: HT-29
SK-MEL-5 = system: SK-MEL-5
OVCAR-4 = system: OVCAR-4
UO-31 = system: UO-31
NCI-H23 = system: NCI-H23
OVCAR-3 = system: OVCAR-3
HOP-92 = system: HOP-92
SF-539 = system: SF-539

Structure (SMILES) | GI50 (786-0) | GI50 (COLO 205) | GI50 (OVCAR-5) | GI50 (HCC 2998) | GI50 (ACHN) | GI50 (RPMI-8226) | GI50 (NCI-H460) | GI50 (UACC-257) | GI50 (NCI-H226) | GI50 (SW-620) | GI50 (CAKI-1) | GI50 (HT-29) | GI50 (SK-MEL-5) | GI50 (OVCAR-4) | GI50 (UO-31) | GI50 (NCI-H23) | GI50 (OVCAR-3) | GI50 (HOP-92) | GI50 (SF-539)
NC1=NN(c2ccccc2)C(=O)C1C(=O)C(=O)Nc1ccc(Cl)cc1 (centres undefined) | > 100 µM (inactive) | > 100 µM (inactive) | > 100 µM (inactive) | > 100 µM (inactive) | > 100 µM (inactive) | > 100 µM (inactive) | > 100 µM (inactive) | > 100 µM (inactive) | > 100 µM (inactive) | > 100 µM (inactive) | > 100 µM (inactive) | > 100 µM (inactive) | > 100 µM (inactive) | > 100 µM (inactive) | > 100 µM (inactive) | > 100 µM (inactive) | > 100 µM (inactive) | > 100 µM (inactive) | > 100 µM (inactive)
CC(C)c1cccc(C(C)C)c1NC(=O)C(=O)C1CCC2=C(Sc3ccccc3N2)C1=O (centres undefined) | 65.2 µM (inactive) | 24.4 µM (inactive) | 41.5 µM (inactive) | > 100 µM (inactive) | > 100 µM (inactive) | 44.4 µM (inactive) | > 100 µM (inactive) | 67.3 µM (inactive) | 29.4 µM (inactive) | 12 µM (inactive) | 64.4 µM (inactive) | 58.5 µM (inactive) | 56.2 µM (inactive) | 95.9 µM (inactive) | > 100 µM (inactive) | 31.6 µM (inactive) | > 100 µM (inactive) | > 100 µM (inactive) | 31.3 µM (inactive)
N#CC1=C(N)n2c(s/c(=C\c3ccc(Cl)cc3)c2=O)=C(c2nc3ccccc3[nH]2)C1c1ccc(Cl)cc1 (centres undefined) | 2.23 µM (inactive) | 2.51 µM (inactive) | 2.02 µM (inactive) | 0.411 µM (active) | 2.29 µM (inactive) | 2.23 µM (inactive) | 1.85 µM (inactive) | 2.48 µM (inactive) | 1.91 µM (inactive) | 1.37 µM (inactive) | 2.98 µM (inactive) | – | 3.02 µM (inactive) | 2.01 µM (inactive) | 4.45 µM (inactive) | 0.426 µM (active) | 1.8 µM (inactive) | 0.203 µM (active) | 1.98 µM (inactive)
CC1=C[C@]2(O)C(=O)[C@H](C)C[C@H]3[C@@H](CC[C@@](C)(O)/C=C\2C1=O)C3(C)C | 18.9 µM (inactive) | 16.7 µM (inactive) | > 76.7 µM (inactive) | 30.3 µM (inactive) | 22.4 µM (inactive) | > 41.9 µM (inactive) | 25.5 µM (inactive) | 17.4 µM (inactive) | 33.7 µM (inactive) | 19.4 µM (inactive) | 25.4 µM (inactive) | 28.4 µM (inactive) | 21.6 µM (inactive) | 23.6 µM (inactive) | 62.5 µM (inactive) | 25.6 µM (inactive) | 19.7 µM (inactive) | 23 µM (inactive) | 22.4 µM (inactive)
COc1ccc(C(=O)OCC2OC(n3cnc4c(=S)nc[nH]c43)C(OC(=O)c3ccc(OC)cc3)C2OC(=O)c2ccc(OC)cc2)cc1 (centres undefined) | 15.3 µM (inactive) | > 100 µM (inactive) | 23.1 µM (inactive) | 9.35 µM (inactive) | 76.9 µM (inactive) | 4.36 µM (inactive) | 43.1 µM (inactive) | 16.8 µM (inactive) | 30.1 µM (inactive) | 46.9 µM (inactive) | 48.6 µM (inactive) | 24.9 µM (inactive) | 69.2 µM (inactive) | 7.82 µM (inactive) | 55.1 µM (inactive) | 39.7 µM (inactive) | 5.06 µM (inactive) | 6.05 µM (inactive) | 20.5 µM (inactive)
COc1cccc2c1C(=O)c1c(O)c3c(c(O)c1C2=O)C[C@@](O)(C(C)=O)CC3S(=O)(=O)O (some centres undefined) | > 100 µM (inactive) | > 100 µM (inactive) | > 100 µM (inactive) | > 100 µM (inactive) | > 100 µM (inactive) | > 100 µM (inactive) | > 100 µM (inactive) | > 100 µM (inactive) | > 100 µM (inactive) | > 100 µM (inactive) | > 100 µM (inactive) | > 100 µM (inactive) | > 100 µM (inactive) | > 100 µM (inactive) | > 100 µM (inactive) | > 100 µM (inactive) | > 100 µM (inactive) | > 100 µM (inactive) | > 100 µM (inactive)
CC(=O)O[C@]1(C(C)=O)CC[C@H]2[C@@H]3C[C@H](C)C4=CC(=O)C=C[C@]4(C)[C@@]3(F)[C@@H](O)C[C@@]21C [FLUOROMETHOLONE ACETATE] | > 100 µM (inactive) | > 100 µM (inactive) | 0.149 µM (active) | > 100 µM (inactive) | 56.5 µM (inactive) | 11.9 µM (inactive) | 76.9 µM (inactive) | 31.1 µM (inactive) | 22.2 µM (inactive) | 53.2 µM (inactive) | 96.4 µM (inactive) | 56.1 µM (inactive) | 28.9 µM (inactive) | 27.4 µM (inactive) | 17.1 µM (inactive) | 63.8 µM (inactive) | > 100 µM (inactive) | 85.7 µM (inactive) | > 100 µM (inactive)
NCCSc1nc(N)c2ncn(C3OC(CO)C(O)C3O)c2n1 (centres undefined) | > 100 µM (inactive) | > 100 µM (inactive) | > 100 µM (inactive) | > 100 µM (inactive) | > 100 µM (inactive) | > 100 µM (inactive) | > 100 µM (inactive) | > 100 µM (inactive) | > 100 µM (inactive) | > 100 µM (inactive) | > 100 µM (inactive) | > 100 µM (inactive) | > 100 µM (inactive) | > 100 µM (inactive) | > 100 µM (inactive) | > 100 µM (inactive) | > 100 µM (inactive) | > 100 µM (inactive) | > 100 µM (inactive)
CCC1CN2CCC3(c4ccccc4)CC(C(=O)OC)=CC1C23 (centres undefined) | 17.2 µM (inactive) | 16.9 µM (inactive) | 5.6 µM (inactive) | 16.7 µM (inactive) | 16.6 µM (inactive) | 21.3 µM (inactive) | 17.7 µM (inactive) | 16.4 µM (inactive) | 17 µM (inactive) | 16.9 µM (inactive) | 18.5 µM (inactive) | 16.7 µM (inactive) | 16.4 µM (inactive) | 14.5 µM (inactive) | 14.1 µM (inactive) | 15.4 µM (inactive) | 19.2 µM (inactive) | 11.7 µM (inactive) | 16.8 µM (inactive)
CC1=C(C(=O)Nc2cccc(Cl)c2)C(c2ccccc2F)C(C(=O)Nc2cccc(Cl)c2)=C(C)N1 | 13.7 µM (inactive) | 11.2 µM (inactive) | 19.3 µM (inactive) | 7.57 µM (inactive) | 9.98 µM (inactive) | 2.77 µM (inactive) | 6.7 µM (inactive) | 10.2 µM (inactive) | 11.3 µM (inactive) | 21.6 µM (inactive) | 4.99 µM (inactive) | 5.43 µM (inactive) | 13.5 µM (inactive) | 5.83 µM (inactive) | 7.94 µM (inactive) | 12.2 µM (inactive) | 10.8 µM (inactive) | 1.15 µM (inactive) | 13.9 µM (inactive)
CCOC(=O)C(=O)Nc1cc(Cl)ccc1Cl | > 100 µM (inactive) | > 100 µM (inactive) | > 100 µM (inactive) | > 100 µM (inactive) | > 100 µM (inactive) | > 100 µM (inactive) | > 100 µM (inactive) | > 100 µM (inactive) | > 100 µM (inactive) | > 100 µM (inactive) | > 100 µM (inactive) | > 100 µM (inactive) | > 100 µM (inactive) | > 100 µM (inactive) | > 100 µM (inactive) | > 100 µM (inactive) | > 100 µM (inactive) | > 100 µM (inactive) | > 100 µM (inactive)
ClC1CCC2OOC1O2 (centres undefined) | > 100 µM (inactive) | > 100 µM (inactive) | > 100 µM (inactive) | > 100 µM (inactive) | > 100 µM (inactive) | > 100 µM (inactive) | > 100 µM (inactive) | > 100 µM (inactive) | > 100 µM (inactive) | > 100 µM (inactive) | > 100 µM (inactive) | 89.5 µM (inactive) | > 100 µM (inactive) | > 100 µM (inactive) | > 100 µM (inactive) | > 100 µM (inactive) | > 100 µM (inactive) | > 100 µM (inactive) | > 100 µM (inactive)
Cc1ccc(/C=C2\Cc3cccc(C)c3C2=O)c(C(=O)O)c1 | > 100 µM (inactive) | – | > 100 µM (inactive) | 39.1 µM (inactive) | 28.7 µM (inactive) | 36.3 µM (inactive) | > 100 µM (inactive) | > 100 µM (inactive) | > 100 µM (inactive) | > 100 µM (inactive) | 19.9 µM (inactive) | > 100 µM (inactive) | 71.1 µM (inactive) | 21.1 µM (inactive) | 17.3 µM (inactive) | > 100 µM (inactive) | 94.2 µM (inactive) | 17.3 µM (inactive) | 74.8 µM (inactive)
N#CC1(C#N)C(C#N)(C#N)C12CCCCCC2 | 6.59 µM (inactive) | 15.7 µM (inactive) | 16.4 µM (inactive) | 19.6 µM (inactive) | 11.1 µM (inactive) | 3.28 µM (inactive) | > 47.1 µM (inactive) | 13.9 µM (inactive) | 20 µM (inactive) | 1.95 µM (inactive) | 12.2 µM (inactive) | 17.2 µM (inactive) | 18 µM (inactive) | 16.3 µM (inactive) | 18.5 µM (inactive) | 16 µM (inactive) | 16.1 µM (inactive) | 15.4 µM (inactive) | 13.6 µM (inactive)
